This note sets out measurements from ChEMBL document CHEMBL3351664, “Acylphloroglucinol derivatives from Hypericum andinum: antidepressant-like activity of andinin A” (J Nat Prod, 2014).

The subject of data set [1] is Mus musculus. Kind of data set: Antidepressant-like activity in po dosed mouse assessed as reduction in the immobility time by forced-swimming test. The data set is classed as functional, organism-based.
Data set [2] has as its system Mus musculus. Kind of data set: Toxicity in po dosed CF1 mouse assessed as effect on locomotor activity at 30 mg/kg, po measured after 60 mins by open-field test. The data set is classed as organism-based. The following applies: in vivo, 1 h. Also noted: dose 30 mg/kg, route oral.

As for `CC(C)=CCOc1cc(O)c(C(=O)C(C)C)c(O)c1CC1=C(O)C(C)(C)C(O)=C(C(=O)C(C)C)C1=O`, the Activity entry with Mus musculus [1] is “Dose-dependent effect”; with Mus musculus [2] it was “Non-toxic”.
